pIC50: −log10 of the molar value.
How the values were obtained:
Caov-3 cells [1] = assay: Second in-vitro cytological inhibitory activity experiment, first method (CelltiterGlo assay), Caov-3; assay type: cell-based; settings: Homo sapiens, Caov-3, 168 h, Experimental Example 3 first method, 2,000 cells/well, 7 days
Experimental: (§1) Experimental Example 3 Second Experiment of in-vitro Cytological Inhibitory Activities of Compounds of the Present Disclosure
(§2) Cell lines used in the following experiment were as follows: MDA-MB-436: human breast cancer cells; and Caov-3: Human ovarian cancer cells
(§3) First Experimental Method (CelltiterGlo Assay)
(§4) All cells were adherent cells, the MDA-MB-436 cell medium was DMEM+10% FBS+1% ITS-G+16 μg/ml glutathione, the Caov-3 cell medium was DMEM+10% FBS, and cells were tested in a logarithmic growth phase.
(§5) Cells in the logarithmic growth phase were collected and counted by a […]. The cell viability was detected by a trypan blue exclusion method, and the cell viability was kept over 90%. The cell concentration was adjusted to be in a proper range, and 90 μL of cell suspension was added into a 96-well plate respectively.
(§6) 2.1 DMSO stock solutions of the test compounds were prepared, and concentrations of the stock solutions of the test compounds were 10 mM respectively.
(§7) The stock solutions of the test compounds were serially diluted from 10 mM with DMSO in a 3-fold gradient for a total of 8 concentrations. Then, 2 µL of DMSO-gradient diluted compounds were respectively added into 198 µL of culture solutions to give the working stock solutions of the test compounds (a compound concentration was 10-fold higher than the final concentration, and a maximum concentration was 100 μM).
(§8) 10 μL of compound working stock solution was added into each well in the 96-well plate inoculated with cells (10-fold dilution, a final DMSO concentration was 0.1%).
(§9) Solvent control: 0.1% DMSO.
(§10) Blank control: 0 hour after dosing, the 96-well plate was detected and read.
(§11) 2.5 The 96-well plate was placed in a 5% CO2 cell incubator at 37° C. to culture for 7 days.
(§12) A CTG reagent was thawed and the 96-well plate was equilibrated to room temperature for 30 minutes, 60 μL of reagent (Celititer Glo assay kit) was added into each well, shaking was carried out for 2 minutes with a shaker (in the absence of light), and the plate was incubated at room temperature for 20 minutes (in the absence of light). Light signal values were read on a multi-functional microplate reader.
(§13) 1) inhibition (%)=(DMSO solvent control well reading−test compound well reading)/(DMSO solvent control well reading−blank control well reading)×100%;
(§14) 2) GraphPad Prism was input for drawing to obtain a curve and IC50.

[2] = biological target: T1, Recombinant Human His6-USP1/His6-UAF1 Complex Protein (Homo sapiens (Human), UniProt O94782); assay: In-vitro enzymatic activity on USP1, second experimental method (60 min incubation); assay type: biochemical; settings: incubation at room temperature 60 minutes, read-out: Inhibitory activities on USP-1, IC50
T1 sequence (O94782 whole entry): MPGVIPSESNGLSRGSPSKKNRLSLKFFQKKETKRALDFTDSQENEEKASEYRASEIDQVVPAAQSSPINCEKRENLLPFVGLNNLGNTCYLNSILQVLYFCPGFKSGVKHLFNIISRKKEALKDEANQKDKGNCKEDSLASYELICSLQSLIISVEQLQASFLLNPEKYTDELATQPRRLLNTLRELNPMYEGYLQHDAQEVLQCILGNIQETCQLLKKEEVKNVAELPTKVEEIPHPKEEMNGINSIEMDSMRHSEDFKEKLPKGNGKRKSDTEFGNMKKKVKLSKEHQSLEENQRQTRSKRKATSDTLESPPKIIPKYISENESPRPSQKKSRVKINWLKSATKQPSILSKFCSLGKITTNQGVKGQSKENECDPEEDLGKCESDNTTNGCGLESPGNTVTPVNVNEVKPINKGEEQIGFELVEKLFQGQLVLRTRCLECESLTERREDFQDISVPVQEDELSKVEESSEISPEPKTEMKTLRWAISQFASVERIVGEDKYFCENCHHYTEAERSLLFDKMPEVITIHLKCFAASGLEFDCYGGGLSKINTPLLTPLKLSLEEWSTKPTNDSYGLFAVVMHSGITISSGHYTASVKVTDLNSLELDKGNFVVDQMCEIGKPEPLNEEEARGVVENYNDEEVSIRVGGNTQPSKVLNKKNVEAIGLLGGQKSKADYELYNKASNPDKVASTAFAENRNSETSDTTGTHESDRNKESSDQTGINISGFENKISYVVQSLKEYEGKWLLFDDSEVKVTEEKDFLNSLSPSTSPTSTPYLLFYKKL
T1 sequence (Q8TAF3 whole entry partner): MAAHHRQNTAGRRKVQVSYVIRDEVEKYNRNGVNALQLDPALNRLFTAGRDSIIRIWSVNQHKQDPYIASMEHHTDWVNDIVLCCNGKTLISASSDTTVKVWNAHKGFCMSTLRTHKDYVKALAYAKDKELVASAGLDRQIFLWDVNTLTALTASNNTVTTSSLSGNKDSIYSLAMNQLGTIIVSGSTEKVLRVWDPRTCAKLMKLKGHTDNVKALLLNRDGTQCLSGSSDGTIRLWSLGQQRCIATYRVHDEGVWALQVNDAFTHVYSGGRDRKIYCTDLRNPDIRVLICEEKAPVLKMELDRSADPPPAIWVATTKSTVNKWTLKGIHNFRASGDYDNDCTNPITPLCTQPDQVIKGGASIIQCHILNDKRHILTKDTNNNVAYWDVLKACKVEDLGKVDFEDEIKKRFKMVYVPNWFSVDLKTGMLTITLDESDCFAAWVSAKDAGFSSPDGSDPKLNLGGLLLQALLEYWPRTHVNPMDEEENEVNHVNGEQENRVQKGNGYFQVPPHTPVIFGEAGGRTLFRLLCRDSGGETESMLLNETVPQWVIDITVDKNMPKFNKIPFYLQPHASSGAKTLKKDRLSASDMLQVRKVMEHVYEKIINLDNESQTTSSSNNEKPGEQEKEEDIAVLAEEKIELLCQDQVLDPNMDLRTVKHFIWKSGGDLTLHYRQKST
Experimental: (§15) 1) An enzyme solution was prepared in 1×test buffer.
(§16) 2) Ubiquitin Rhodamine 110 protein, CF (UB-Rho), was added into 1×determination buffer to prepare a substrate solution.
(§17) 3) 10 μL of enzyme solution and 1×reaction buffer were transferred to a 384-well plate, and
(§18) 4) incubated at room temperature for 15 minutes.
(§19) 5) 10 μL of substrate solution was added into each well to start the reaction, centrifuged for 30 seconds, and shaken for 30 seconds.
(§20) 1) Plate reading was carried out on SpectraMax Paradigm for 30 minutes, with an excitation wavelength of 480 nm and an emission wavelength of 540 nm.
(§21) [formula] • wherein, Max represented: a luminous signal intensity of a positive control well without adding the compound; • Min represented: a luminous signal intensity of a negative control well without adding the enzyme; and • Signal represented: a luminous signal intensity of the compound of the test sample.
(§22) [formula] • wherein, Y represented: % inhibition; and • X represented: the concentration of the compound.
(§23) Second Experimental Method:
In the enzyme reaction experiment, the incubation time at room temperature in the step 4) was changed to 60 minutes, other conditions were the same as those in the first experimental method, and the following test results were obtained: […]

MDA-MB-436 cells [3] = assay: Second in-vitro cytological inhibitory activity experiment, first method (CelltiterGlo assay), MDA-MB-436; assay type: cell-based; settings: Homo sapiens, MDA-MB-436, 168 h, Experimental Example 3 first method, 3,000 cells/well, 7 days, read-out: In-vitro cytological activities, IC50, MDA-MB-436
Experimental: as §1, §2, §3, §4, §5, §6, §7, §8, §9, §10, §11, §12, §13, §14

Caov-3 cells [4] = assay: Second in-vitro cytological inhibitory activity experiment, second method, Caov-3; assay type: cell-based; settings: Homo sapiens, Experimental Example 3 second method, 5 mM stock, 9 concentrations
Experimental: as §23
(§24) The concentrations of the compound stock solutions prepared were 5 mM.
(§25) The stock solutions of the test compounds were serially diluted from 5 mM with DMSO in a 3-fold gradient for a total of 9 concentrations.

MDA-MB-436 cells [5] = assay: Second in-vitro cytological inhibitory activity experiment, second method, MDA-MB-436; assay type: cell-based; settings: Homo sapiens, Experimental Example 3 second method, 5 mM stock, 9 concentrations
Experimental: as §23, §24, §25

MDA-MB-436 cells [6] = assay: First in-vitro cytological inhibitory activity experiment (CelltiterGlo assay); assay type: cell-based, human; settings: Homo sapiens, MDA-MB-436, 168 h, Experimental Example 2, 4,000 cells/well, 7 days, read-out: In-vitro cytological activities, IC50, MDA-MB-436
Experimental: Experimental Example 2 First Experiment of in-vitro Cytological Inhibitory Activities of Compounds of the Present Disclosure
A cell line used in the following experiment was as follows: MDA-MB-436: human breast cancer cells.
Experimental method (CelltiterGlo assay)
All cells were adherent cells, the medium was DMEM+10% FBS+1% ITS-G+16 μg/ml glutathione, and the cells were tested in a logarithmic growth phase.
as §5, §6
as §7, with “[…]” for “100”
as §8
Solvent control: 0.1% DMSO. […]
as §12
1) inhibition (%)=(DMSO solvent control well reading−test compound well reading)/(DMSO solvent control well reading−blank control well reading)×100%; […]

[7] = biological target: T1, Recombinant Human His6-USP1/His6-UAF1 Complex Protein; assay: In-vitro enzymatic activity on USP1, first experimental method (Ub-Rho substrate, 15 min incubation); assay type: biochemical; settings: incubation at room temperature 15 minutes, read-out: Inhibitory activities on USP-1, IC50
Experimental: Experimental Example 1 In-vitro Enzymatic Activities of Compounds of the Present Disclosure
First Experimental Method:
1) The compounds of the present disclosure were prepared to 10 mM with DMSO, and used as test stock solutions.
2) The stock solutions of the compounds of the present disclosure were diluted in a 4-fold gradient for 10 concentrations, with a maximum concentration of 10 mM.
3) The diluted compounds of the present disclosure were respectively transferred to 384-well plates (diluted by 1,000 folds) by Echo550, 2 multiple wells were set for each concentration, and a final concentration of DMSO was […].
as §15, §16, §17, §18, §19, §20
2) Data on SpectraMax Paradigm were collected.
An inhibition (% inh) was calculated by the following formula:
as §21
IC50 was Calculated by the Following Formula:
as §22

| Structure (SMILES) | pIC50 (Caov-3 cells [1]) | pIC50 [2] | pIC50 (MDA-MB-436 cells [3]) | pIC50 (Caov-3 cells [4]) | pIC50 (MDA-MB-436 cells [5]) | pIC50 (MDA-MB-436 cells [6]) | pIC50 [7] |
| --- | --- | --- | --- | --- | --- | --- | --- |
| COc1ncnc(C2CC2)c1-c1nc2c3c(nn(Cc4ccc(-c5nc(C(F)(F)F)cn5C(C)C)cc4)c3n1)CCC2 [Compound 16, 4-(4-cyclopropyl-6-methoxypyrimidine-5-yl)-2-(4-(1-isopropyl-4-(trifluoromethyl)-1H-imidazol-2-yl)benzyl)-2,6,7,8-tetrahydropyrazolo[3,4,5-de]quinazoline] | 6.22 to 9.00 | 8.10 | 7.37 |  |  |  |  |
| Cc1cnn(C(C)C)c1-c1nc2c3c(nn(Cc4ccc(-c5nc(C(F)(F)F)cn5C)cc4)c3n1)CCC2 [Compound 18, 4-(1-isopropyl-4-methyl-1H-pyrazol-5-yl)-2-(4-(1-methyl-4-(trifluoromethyl)-1H-imidazol-2-yl)benzyl)-2,6,7,8-tetrahydropyrazolo[3,4,5-de]quinazoline] | 6.22 to 9.00 | 8.40 | 7.53 |  |  |  |  |
| Cn1cc(C(F)(F)F)nc1-c1ccc(Cn2nc3c4c(nc(-c5c(OC(F)F)ncnc5C5CC5)nc42)CCC3)cc1 [Compound 20, 4-(4-cyclopropyl-6-(difluoromethoxy)pyrimidin-5-yl)-2-(4-(1-methyl-4-(trifluoromethyl)-1H-imidazol-2-yl)benzyl)-2,6,7,8-tetrahydropyrazolo[3,4,5-de]quinazoline] |  |  |  | 7.00 to 9.00 | 7.25 |  |  |
| [2H]C([2H])([2H])Oc1ncnc(C2CC2)c1-c1nc2c3c(nn(Cc4ccc(-c5nc(C(F)(F)F)cn5C(C)C)cc4)c3n1)CCC2 [Compound 16-1, 4-(4-cyclopropyl-6-(methoxy-d3)pyrimidin-5-yl)-2-(4-(1-isopropyl-4-(trifluoromethyl)-1H-imidazol-2-yl)benzyl)-2,6,7,8-tetrahydropyrazolo[3,4,5-de]quinazoline] | 6.22 to 9.00 | 8.18 | 7.26 |  |  |  |  |
| CC(C)c1c(F)cccc1-c1nc2c3c(nn(Cc4ccc(-c5nc(C(F)(F)F)cn5C)cc4)c3n1)CCC2 [Compound 2, 4-(3-fluoro-2-isopropylphenyl)-2-(4-(1-methyl-4-(trifluoromethyl)-1H-imidazol-2-yl)benzyl)-2,6,7,8-tetrahydropyrazolo[3,4,5-de]quinazoline] |  |  |  |  |  | 7.05 | 8.30 |
| [2H]C([2H])([2H])Oc1ncnc(C2CC2)c1-c1nc2c3c(nn(Cc4ccc(-c5nc(C(F)(F)F)cn5C)cc4)c3n1)CCCC2 [Compound 11-1, 4-(4-cyclopropyl-6-(methoxy-d3)pyrimidin-5-yl)-2-(4-(1-methyl-4-(trifluoromethyl)-1H-imidazol-2-yl)benzyl)-6,7,8,9-tetrahydro-2H-1,2,3,5-tetraazabenzo[cd]azulene] | 6.22 to 9.00 | 7.82 | 6.91 |  |  |  |  |
| COc1ncnc(C2CC2)c1-c1nc2c3c(nn(Cc4ccc(-c5nc(C(F)(F)F)cn5C)cc4)c3n1)CCC2 [Compound 1, 4-(4-cyclopropyl-6-methoxypyrimidine-5-yl)-2-(4-(1-methyl-4-(trifluoromethyl)-1H-imidazol-2-yl)benzyl)-2,6,7,8-tetrahydropyrazolo[3,4,5-de]quinazoline] |  |  |  |  |  | 7.17 | 7.55 |
| [2H]C([2H])([2H])Oc1ncnc(C2CC2)c1-c1nc2c3c(nn(Cc4ccc(-c5nc(C(F)(F)F)cn5C(C)C)cc4)c3n1)CCCC2 [Compound 17-1, 4-(4-cyclopropyl-6-(methoxy-d3)pyrimidin-5-yl)-2-(4-(1-isopropyl-4-(trifluoromethyl)-1H-imidazol-2-yl)benzyl)-6,7,8,9-tetrahydro-2H-1,2,3,5-tetraazabenzo[cd]azulene] | 6.22 to 9.00 | 8.18 | 6.96 |  |  |  |  |
| Cc1cnn(C(C)C)c1-c1nc2c3c(nn(Cc4ccc(-c5nc(C(F)(F)F)cn5C(C)C)cc4)c3n1)CCC2 [Compound 19, 2-(4-(1-isopropyl-4-(trifluoromethyl)-1H-imidazol-2-yl)benzyl)-4-(1-isopropyl-4-methyl-1H-pyrazol-5-yl)-2,6,7,8-tetrahydropyrazolo[3,4,5-de]quinazoline] | 6.22 to 9.00 | 8.36 | 7.30 |  |  |  |  |
| [2H]C([2H])([2H])Oc1ncnc(C2CC2)c1-c1nc2c3c(nn(Cc4ccc(-c5nc(C(F)(F)F)cn5C)cc4)c3n1)CCC2 [Compound 1-1, 4-(4-cyclopropyl-6-(methoxy-d3)pyrimidin-5-yl)-2-(4-(1-methyl-4-(trifluoromethyl)-1H-imidazol-2-yl)benzyl)-2,6,7,8-tetrahydropyrazolo[3,4,5-de]quinazoline] | 6.22 to 9.00 | 7.89 | 7.37 |  |  |  |  |
| Cc1cc(C(F)(F)F)nn1-c1ccc(Cn2nc3c4c(nc(-c5cccc(F)c5C(C)C)nc42)CCC3)cc1 [Compound 3, 4-(3-fluoro-2-isopropylphenyl)-2-(4-(5-methyl-3-(trifluoromethyl)-1H-pyrazol-1-yl)benzyl)-2,6,7,8-tetrahydropyrazolo[3,4,5-de]quinazoline] |  |  |  |  |  |  | 7.74 |

Source: US20240101566A1, “TRICYCLIC UBIQUITIN SPECIFIC PROTEASE 1 INHIBITOR AND USE THEREOF” (SHANDONG XUANZHU PHARMA CO., LTD., priority 2021, published 2024)
